# Laboratory results reported in ChEMBL document CHEMBL5029142, “Stapled Wasp Venom-Derived Oncolytic Peptides with Side Chains Induce Rapid Membrane Lysis and Prolonged Immune Responses in Melanoma” (J Med Chem, 2021).
# Activity calls are given as the source filed them. The calls are words filed in the database; no cut-off is given here. Starred links: 1 amine or outer side, 2 acyl side, 3 side chain; linkers in the order of their positions; H or OH if unused. Positions of bridges follow the written chain, without caps; N, C: chain ends. Non-standard residues stand in square brackets, D forms with d. Residues, ends and D or L forms follow the SMILES beside them. ξ: configuration not given here. ξαMeNle(6-ylidene) = CC(CCCC=[*:3])(N[*:1])C(=O)[*:2]; X1 = CC(C)C[C@@](CCCC=[*:3])(N[*:1])C(=O)[*:2]; X2 = NCCCC[C@@](CCCC=[*:3])(N[*:1])C(=O)[*:2]; Dip = N[C@H](C(=O)O)C(c1ccccc1)c1ccccc1; S5 = C=CCCC[C@](C)(N)C(=O)O
# Assays:
# B16-F10 [1] = experiment: Antiproliferative activity against mouse B16-F10 cells assessed as inhibition of cell growth measured after 24 hrs by Cell Counting Kit-8 assay; type: functional, cell-based; settings: B16-F10, 24 h
# 4T1 [2] = experiment: Antiproliferative activity against triple-negative mouse 4T1 cells assessed as inhibition of cell growth measured after 24 hrs by Cell Counting Kit-8 assay; type: functional, cell-based; settings: 4T1, 24 h
# 4T1 [3] = experiment: Antitumor activity against mouse 4T1 cells implanted in BALB/c mouse assessed as necrosis at 1 mg, IT administered once daily for 3 consecutive days starting from day 2 post inoculation and measured on day 7 by hematoxylin-eosin staining based assay; type: functional, cell-based; settings: time 7.0 day
# 4T1 [4] = experiment: Antitumor immunity against mouse 4T1 cells implanted in […] mouse assessed as surface translocation of calreticulin at IC75 measured after 6 hrs by DiR/Hoechst 33342 staining based confocal microscopic analysis; type: functional, cell-based
# 4T1 [5] = experiment: Antitumor activity against mouse 4T1 cells implanted in BALB/c mouse assessed as necrosis at 1 mg, IT administered once daily for 3 consecutive days starting from day 2 post inoculation and measured on day 18 by hematoxylin-eosin staining based assay; type: functional, cell-based; settings: time 18.0 day
# B16-F10 [6] = experiment: (§1) Antitumor activity against mouse B16-F10 cells implanted in C57 mouse assessed as increase in infiltration of CD8 positive T cells into tumors at 1 mg, IT administered once daily for 3 consecutive days starting from day 5 post inoculation and measured after 10 days by histochemical staining based analysis; type: functional, cell-based; settings: time 10.0 day
# B16-F10 [7] = experiment: as §1, with “CD4” for “CD8”; type: functional, cell-based; settings: time 10.0 day
# 4T1 [8] = experiment: Cytotoxicity against mouse 4T1 cells assessed as loss of membrane integrity by measuring increase in LDH release incubated for 24 hrs by LDH release assay; type: functional, cell-based
# [9] = Stability of the compound assessed as alpha chymotrypsin (unknown origin)-mediated proteolysis by measuring degradation half life at 1 mM measured up to 12 hrs by HPLC analysis; type: ADME; settings: human; for half-life at 1000 µM: alpha-chymotrypsin
# [10] = Toxicity in B16-F10 tumor bearing C57 mouse assessed as change in body weight at 1 mg, IT administered once daily for 3 consecutive days starting from day 5 post inoculation; settings: in vivo, other, 72 h, time 3 day
# [11] = Toxicity in 4T1 tumor bearing BALB/c mouse assessed as increase in body weight at 1 mg, IT administered once daily for 3 consecutive days starting from day 2 post inoculation; settings: in vivo, other, 72 h, time 3 day
# 4T1 [12] = experiment: Antitumor immunity against mouse 4T1 cells implanted in […] mouse assessed as release of HMGB-1 at IC75 measured after 6 hrs by Hoechst 33342 staining based confocal microscopic analysis; type: functional, cell-based
# 4T1 [13] = experiment: Cytotoxicity against mouse 4T1 cells assessed as disruption of cells by measuring increase in red fluorescence at 10 uM measured up to 3 hrs by calcein-AM and PI dual staining based live/dead cell viability assay; type: functional; settings: time hrs <=3
# 4T1 [14] = experiment: Cytotoxicity against mouse 4T1 cells assessed as increase in extracellular ATP level at 50 uM measured up to 60 mins by luminometric method; type: functional, cell-based; settings: time min <=60
# 4T1 [15] = experiment: as §1, with “mouse 4T1” for “mouse B16-F10”, “of CD4” for “of CD8”, “T lymphocytes in” for “T cells into”, “day 2” for “day 5”, “after 7” for “after 10”; type: functional, cell-based; settings: time 7.0 day
# B16-F10 [16] = experiment: Antitumor activity against mouse B16-F10 cells implanted in C57 mouse assessed as induction of cell necrosis by measuring reduction in live cells at 1 mg, IT administered once daily for 3 consecutive days starting from day 5 post inoculation and measured after 10 to 14 days by hematoxylin-eosin staining based assay; type: functional; settings: time 10-14 day
# [17] = Stability of the compound assessed as alpha chymotrypsin (unknown origin)-mediated proteolysis by measuring parent compound remaining at 1 mM measured up to 12 hrs by HPLC analysis; type: ADME; settings: human, read-out: Stability
# [18] = Hemolytic activity in mouse RBC assessed as hemoglobin release at 20 to 80 uM incubated for 1 hr by absorbance based method; type: tissue-based; settings: erythrocyte, dose 20-80 µM
# 4T1 [19] = experiment: Induction of morphological changes in mouse 4T1 cells assessed as change in adhesion measured up to 10 mins by bright field 3D live-cell imaging analysis; type: functional, cell-based; settings: time min <=10
# 4T1 [20] = experiment: Induction of morphological changes in mouse 4T1 cells assessed as appearance of broken cell particles measured after 5 mins by bright field 3D live-cell imaging analysis; type: functional, cell-based
# B16-F10 [21] = experiment: Antitumor immunity against mouse B16-F10 cells implanted in C57 mouse assessed as release of HMGB-1 at IC75 measured after 6 hrs by Hoechst 33342 staining based confocal microscopic analysis; type: functional, cell-based
# 4T1 [22] = experiment: Antitumor activity against mouse 4T1 cells implanted in BALB/c mouse assessed as inhibition of tumor progression at 1 mg, IT administered once daily for 3 consecutive days starting from day 2 post inoculation; type: functional, cell-based; settings: time 3.0 day
# B16-F10 [23] = experiment: Antitumor immunity against mouse B16-F10 cells implanted in C57 mouse assessed as surface translocation of calreticulin at IC75 measured after 6 hrs by DiR/Hoechst 33342 staining based confocal microscopic analysis; type: functional, cell-based
# B16-F10 [24] = experiment: Antitumor activity against mouse B16-F10 cells implanted in C57 mouse assessed as reduction in tumor growth at 1 mg, IT administered once daily for 3 consecutive days starting from day 5 post inoculation; type: functional, cell-based; settings: time 3.0 day
# 4T1 [25] = experiment: as §1, with “mouse 4T1” for “mouse B16-F10”, “T lymphocytes in” for “T cells into”, “day 2” for “day 5”, “after 7” for “after 10”; type: functional, cell-based; settings: time 7.0 day
# [26] = Hemolytic activity in mouse RBC assessed as hemoglobin release at 80 uM incubated for 1 hr by absorbance based method relative to control; type: ADME, tissue-based, Erythrocyte; settings: mouse red blood cells, read-out: Activity
# B16-F10 [27] = experiment: Antitumor immunity against mouse B16-F10 cells implanted in anti-CD8 positive antibody stimulated C57 mouse assessed as inhibition of tumor progression at 1 mg, IT administered once daily for 3 consecutive days starting from day 7 and measured after 40 days; type: functional, cell-based; settings: time 40.0 day
# B16-F10 [28] = experiment: Antitumor immunity against mouse B16-F10 cells implanted in anti-CD8 positive antibody stimulated C57 mouse assessed as inhibition of tumor progression at 1 mg, IT administered once daily for 3 consecutive days starting from day 7 and measured after 20 days; type: functional, cell-based; settings: time 20.0 day
# 4T1 [29] = experiment: Cytotoxicity against mouse 4T1 cells assessed as permeabilization in to cell membrane at 10 uM measured up to 3 hrs by calcein-AM and PI dual staining based live/dead cell viability assay; type: functional; settings: time hrs <=3, TDE = time-dependent effect
Compound,IC50 (B16-F10 [1]),IC50 (4T1 [2]),Activity (4T1 [3]),Activity (4T1 [5]),Activity (B16-F10 [6]),Activity (B16-F10 [7]),Activity (4T1 [8]),Activity [10],Activity [11],Activity (4T1 [13]),Activity (4T1 [15]),Activity (B16-F10 [16]),Activity (4T1 [22]),Activity (B16-F10 [24]),Activity (4T1 [25]),also measured
CC(C)C[C@H](NC(=O)CN)C(=O)N[C@@H](CC(C)C)C(=O)N[C@@H](CCCCN)C(=O)N[C@@H](CCCNC(=N)N)C(=O)N[C@@]1(C)CCC/C=C\CCC[C@@](C)(C(N)=O)NC(=O)[C@H](CC(C)C)NC(=O)[C@H]([C@@H](C)O)NC(=O)[C@H](CCCCN)NC1=O (H-GLLKR[S5]KTL[S5]-NH2; staple (Z) 6-10),66.1 µM,31.2 µM,,,,,,,,,,,,,,
CC[C@H](C)[C@@H]1NC(=O)[C@H](CCCNC(=N)N)NC(=O)[C@H](CCCCN)NC(=O)[C@@](C)(NC(=O)[C@H](CC(C)C)NC(=O)CN)CCC/C=C\CCC[C@@](C)(C(=O)N[C@H](C(=O)N[C@@H](CC(C)C)C(=O)N[C@@H](CC(C)C)C(N)=O)[C@@H](C)O)NC1=O (H-GL[S5]KRI[S5]TLL-NH2; staple (Z) 3-7),16.1 µM,4.02 µM,Active,inactive,Active,Active,Dose-Dependent Effect,Non-Toxic,Non-Toxic,Active,inactive,Active,inactive,Active,inactive,"Activity (4T1 [4]): Active; Stability ([9]; 12 h, 1000 µM): Stable; Activity (4T1 [12]): Active; Activity (4T1 [14]): Active; remaining at 12 h, 1000 µM [17]: > 60%; Activity [18]: Toxic; Activity (4T1 [19]): Active; Activity (4T1 [20]): Active; Activity (B16-F10 [21]): Active; Activity (B16-F10 [23]): Active"
CC[C@H](C)[C@@H]1NC(=O)[C@H](CCCNC(=N)N)NC(=O)[C@H](CCCCN)NC(=O)[C@@](CC(C)C)(NC(=O)[C@H](CC(C)C)NC(=O)CN)CCC/C=C\CCC[C@@](CCCCN)(C(=O)N[C@H](C(=O)N[C@@H](CC(C)C)C(=O)N[C@@H](CC(C)C)C(N)=O)[C@@H](C)O)NC1=O (H-GL[X1]KRI[X2]TLL-NH2; staple (Z) 3-7),30.4 µM,6.57 µM,Active,inactive,Active,Active,,Non-Toxic,Non-Toxic,,inactive,Active,inactive,Active,inactive,"hemolysis at 1 h, 80 µM [26]: < 10%; Activity (B16-F10 [27]): inactive; Activity (B16-F10 [28]): inactive; Activity (4T1 [29]): Tde"
CC[C@H](C)[C@H](NC(=O)[C@]1(C)CCC/C=C\CCCC(C)(N)C(=O)N[C@@H](CC(C)C)C(=O)N[C@@H](CC(C)C)C(=O)N[C@@H](CCCCN)C(=O)N1)C(=O)N[C@@H](CCCCN)C(=O)N[C@H](C(=O)N[C@@H](CC(C)C)C(=O)N[C@@H](CC(C)C)C(N)=O)[C@@H](C)O (stereo partly drawn) (H-[ξαMeNle(6-ylidene)]LLK[S5]IKTLL-NH2; staple (Z) 1-5),15.1 µM,5.15 µM,,,,,,,,,,,,,,Activity [18]: Toxic
NCCCC[C@H](NC(=O)[C@@H](NC(=O)[C@H](Cc1c[nH]c2ccccc12)NC(=O)[C@H](CCCCN)NC(=O)[C@H](CCCCN)NC(=O)[C@H](Cc1c[nH]c2ccccc12)NC(=O)[C@H](Cc1c[nH]c2ccccc12)NC(=O)[C@H](CCCCN)NC(=O)[C@@H](N)CCCCN)C(c1ccccc1)c1ccccc1)C(N)=O [RUXOTEMITIDE] (H-KKWWKKW[Dip]K-NH2),,,Active,inactive,Active,Active,Dose-Dependent Effect,Non-Toxic,Non-Toxic,Active,inactive,Active,inactive,Active,inactive,half-life at 1000 µM [9]: 34 min; Activity (4T1 [14]): Active

# Second part, led by results:
IC50 (B16-F10 [1]),IC50 (4T1 [2]),Compound,Activity (4T1 [3]),Activity (4T1 [5]),Activity (B16-F10 [6]),Activity (B16-F10 [7]),Activity (4T1 [8]),Activity [10],Activity [11],Activity (4T1 [13]),Activity (4T1 [15]),Activity (B16-F10 [16]),Activity (4T1 [22]),Activity (B16-F10 [24]),Activity (4T1 [25]),also measured
15.7 µM,5.15 µM,CC[C@H](C)[C@@H]1NC(=O)[C@@](C)(NC(=O)[C@H](CCCCN)NC(=O)[C@H](CC(C)C)NC(=O)[C@H](CC(C)C)NC(=O)CN)CCC/C=C\CCC[C@@](C)(C(=O)N[C@@H](CC(C)C)C(N)=O)NC(=O)[C@H]([C@@H](C)O)NC(=O)[C@H](CCCCN)NC1=O (H-GLLK[S5]IKT[S5]L-NH2; staple (Z) 5-9),,,,,,,,,,,,,,
59.7 µM,33.5 µM,CC[C@H](C)[C@@H]1NC(=O)[C@H](CCCNC(=N)N)NC(=O)[C@@](C)(NC(=O)[C@H](CC(C)C)NC(=O)[C@H](CC(C)C)NC(=O)CN)CCC/C=C\CCC[C@@](C)(C(=O)N[C@@H](CC(C)C)C(=O)N[C@@H](CC(C)C)C(N)=O)NC(=O)[C@H](CCCCN)NC1=O (H-GLL[S5]RIK[S5]LL-NH2; staple (Z) 4-8),,,,,,,,,,,,,,
> 400 µM,191 µM,CC[C@H](C)[C@H](NC(=O)[C@H](CCCNC(=N)N)NC(=O)[C@H](CCCCN)NC(=O)[C@H](CC(C)C)NC(=O)[C@H](CC(C)C)NC(=O)CN)C(=O)N[C@@H](CCCCN)C(=O)N[C@H](C(=O)N[C@@H](CC(C)C)C(=O)N[C@@H](CC(C)C)C(N)=O)[C@@H](C)O [ANOPLIN] (H-GLLKRIKTLL-NH2),,,Active,Active,Dose-Dependent Effect,Non-Toxic,Non-Toxic,inactive,inactive,,,inactive,inactive,half-life at 1000 µM [9]: 12 min
